SMILES strings stand for the structures. Square brackets hold non-standard residues; d marks the D form. Peptide text beside a SMILES is read from it.

For one series, the system named is human whole blood. Briefly: PMA+ionomycin-induced cytokine release in human whole blood. The note with it: 1, 3, 10 μM; 4 hours. The series is classed as cell-based. On the procedure:
FIG. 19 JNK inhibition and IL-2 release in human whole blood. The JNK inhibitor with SEQ ID NO: 172 was added at three different concentrations, namely 1, 3 and 10 μM 1 h before whole blood stimulation with PMA+ionomycin (25/700 ng/mL, 50/800 ng/mL and 50/1000 ng/mL) for 4 hours.
FIG. 20 JNK inhibition and IFN-γ release in human whole blood. The JNK inhibitor with SEQ ID NO: 172 was added at three different concentrations, namely 1, 3 and 10 μM 1 h before whole blood stimulation with PMA+ionomycin (25/700 ng/mL, 50/800 ng/mL and 50/1000 ng/mL) for 4 hours.
FIG. 21 JNK inhibition and TNF-α release in human whole blood. The JNK inhibitor with SEQ ID NO: 172 was added at three different concentrations, namely 1, 3 and 10 μM 1 h before whole blood stimulation with PMA+ionomycin (25/700 ng/mL, 50/800 ng/ml and 50/1000 ng/mL) for 4 hours.
Whole blood is collected from anesthetized rat or human healthy volunteers using a venipuncture connected to a pre-labeled vacuum tube containing sodium citrate. Tubes are gently mixed by inversion 7-8 times; and are then kept at RT until stimulation. JNK inhibitor of SEQ ID NO: 172 is prepared 6 times concentrated in PBS, and 30 μl/well of mix is added into 96-well plate. Whole blood is diluted by 1:2 in PBS and 120 μl of diluted blood is added in each well where either PBS alone or JNK inhibitor of SEQ ID NO: 172 has been previously added. Whole blood is incubated at 37° C.; 85 rpm (Stuart Orbital incubator SI500) for 60 min. Activators (LPS) are the prepared, 30 μl/well of LPS, 6 times concentrated. After 60 min incubation, LPS is added to the blood, blood is mixed by pipetting up and down, and then kept for 4 h under agitation (85 rpm), at 37° C. After the 4 h incubation, the plates are centrifuged at about 770 g, 4° C. for 15 min in a pre-cooled centrifuge. […] Cytokine (IL-6, IL-2, IFNγ and TNFα) were then measured using standard Elisa kits (e.g. from R&D Systems: DuoSet Elisas; or from BD Biosciences: BD Opteia Set Elisa). Results are expressed as pg/ml of supernatant of the measured cytokine. […]

In series [1] the test system is Primary Rat Whole Blood Cells. Briefly: LPS-induced TNFα release in rat whole blood. The note with it: LPS 3 ng/ml; 1, 3, 10 μM. The series is classed as cell-based. How it is done: Given are the results for the control, 1 μM of SEQ ID NO: 172, 3 μM of SEQ ID NO: 172, and 10 μM of SEQ ID NO: 172 at different levels of LPS (ng/ml).
Whole blood is collected from anesthetized rat or human healthy volunteers using a venipuncture connected to a pre-labeled vacuum tube containing sodium citrate. Tubes are gently mixed by inversion 7-8 times; and are then kept at RT until stimulation. JNK inhibitor of SEQ ID NO: 172 is prepared 6 times concentrated in PBS, and 30 μl/well of mix is added into 96-well plate. Whole blood is diluted by 1:2 in PBS and 120 μl of diluted blood is added in each well where either PBS alone or JNK inhibitor of SEQ ID NO: 172 has been previously added. Whole blood is incubated at 37° C.; 85 rpm (Stuart Orbital incubator SI500) for 60 min. Activators (LPS) are the prepared, 30 μl/well of LPS, 6 times concentrated. After 60 min incubation, LPS is added to the blood, blood is mixed by pipetting up and down, and then kept for 4 h under agitation (85 rpm), at 37° C. After the 4 h incubation, the plates are centrifuged at about 770 g, 4° C. for 15 min in a pre-cooled centrifuge. […] Cytokine (IL-6, IL-2, IFNγ and TNFα) were then measured using standard Elisa kits (e.g. from R&D Systems: DuoSet Elisas; or from BD Biosciences: BD Opteia Set Elisa). Results are expressed as pg/ml of supernatant of the measured cytokine.

Series [2] deals with established type II collagen arthritis in rats. Briefly: Chronic established type II collagen arthritis, daily IV 14 days. The series is classed as in vivo, rat. The text has this:
Rat collagen arthritis is an experimental model of polyarthritis that has been widely used for preclinical testing of numerous anti-arthritic agents that are either under preclinical or clinical investigation or are currently used as therapeutics in this disease. […] Animals were terminated on arthritis day 14.

Series [3] in a line: Stability (half-life) in human serum, UPLC-MS. The note with it: human serum (10 and 50% in PBS; FIG. 5: 50%), 0.1 mM peptide. On the procedure: The experiment was performed as described by Tugyi et al. (Proc Natl Acad Sci USA, 2005, 413-418). The remaining intact peptide was quantified by UPLC-MS.
Where [4] appears, read: vs disease controls, IV QD d1-14, Dex 0.05 mg/kg, SEQ ID NO: 172 up to 5 mg/kg.

For `CC(C)C[C@H](NC(=O)[C@H](CC(N)=O)NC(=O)[C@H](CC(C)C)NC(=O)[C@@H](NC(=O)[C@@H](C)NC(=O)[C@@H]1CCCN1C(=O)[C@H](CCCNC(=N)N)NC(=O)[C@@H](CCCCN)NC(=O)[C@@H]1CCCN1C(=O)[C@H](CCCNC(=N)N)NC(=O)[C@@H](CCCNC(=N)N)NC(=O)[C@H](CCCNC(=N)N)NC(=O)[C@H](CCCNC(=N)N)NC(=O)[C@H](CCC(N)=O)NC(=O)[C@@H](CCCNC(=N)N)NC(=O)[C@H](CCCNC(=N)N)NC(=O)[C@H](CCCCN)NC(=O)[C@H](CCCCN)NC(=O)[C@H](N)CCCNC(=N)N)[C@@H](C)O)C(=O)N[C@H](Cc1ccccc1)C(N)=O` [SEQ ID NO: 172, rKKRrQRRrRPkRPaTLNLf] (H-[dR]KKR[dR]QRR[dR]RP[dK]RP[dA]TLNL[dF]-NH2; N-terminus assumed), in the series with human whole blood, the “PMA+ionomycin-induced IFN-γ release” value is on record as “did reduce the PMA+ionomycin-induced IFN-γ release in a dose-dependent manner”, the “PMA+ionomycin-induced IL-2 release” value is recorded as “did reduce the PMA+ionomycin-induced IL-2 release in a dose-dependent manner” and the “PMA+ionomycin-induced TNF-α release” value is recorded as “did reduce the PMA+ionomycin-induced TNF-α release in a dose-dependent manner”. Besides, in series [1], the “LPS-induced TNFα release” value is listed as “blocks LPS-induced TNFα release”. Also, in series [2] (1 mg/kg IV QD d1-14), the “ankle diameter AUC, reduction toward normal” value turned out to be 27% and the “inhibition of body weight loss vs disease controls” value is 21%. For the same compound, in series [2] (5 mg/kg IV QD d1-14), the “ankle diameter AUC, reduction toward normal” value stood at 43%; the “ankle histopathology, reduction of summed scores” value amounted to 25%; the “final paw weights, reduction toward normal” value turned out to be 26%; the “inhibition of body weight loss vs disease controls” value came out at 25%. Further, in series [2] (5 mg/kg IV QD d1-14), the “knee histopathology, reduction of summed scores” value is reported as 73%. The “daily ankle diameter measurements” value in series [2] (5 mg/kg IV QD, p<0.05 days 4-12) is listed as “reduced toward normal”. In series [2] (IV QD d1-14), the “effect on organ weights” value is “no adverse effect on organ weights”. For the same compound, in series [2] (setting [4]), the “spleen weights relative to body weight” value is on record as “not significantly affected” and the “thymus weights relative to body weight” value is “not significantly affected”. The “time until completely degraded” value in series [3] was determined as 14 days.

Source of the values: patent US11331364B2, “Use for JNK inhibitor molecules for treatment of various diseases” (Xigen Inflammation Ltd., priority 2014, dated 2022).
